Source: US20260224658A1, “PRODUCTS AND METHODS FOR THE DIAGNOSIS AND TREATMENT OF P[…]” (priority 2023, published 2026)
Where a SMILES comes first, the peptide text is derived from it. [ ]: non-standard residue; d: D form.

Tests used:
[1] = tested on: MPAO1-ΔmutS; assay: In vitro adaptive evolution (serial passaging) with MIC determination; type: cell-based, Pseudomonas aeruginosa; conditions: for cross-resistance to antibiotics induced by treatment / cross-resistance to peptides induced by treatment: MPAO1-ΔmutS evolved in the named drug; for resistance acquisition on repeated exposure to the drug: MPAO1-ΔmutS, monotherapy
Procedure: (§1) MICs were determined via microbroth dilution assay in 96-well culture plates with 2-fold serial dilutions of tested antibiotic in Mueller-Hinton (cation-adjusted) broth, inoculated with 50 μL of 2.75×10^5 CFU/mL of each bacterial strain and incubated at 37° C., 200 rpm for 24 hours. MIC experiments were performed using biological triplicates.
(§2) Serial passaging of bacterial strains was performed in 96-well culture plates with 2-fold serial dilutions of antibiotic in MH broth, inoculated with 50 μL 2.75×10^5 CFU/mL of each strain and incubated at 37° C., 200 rpm for 24 hours. […] The bacteria were then serially passaged in the same antibiotic and MIC determined for all antibiotics (aztreonam, ciprofloxacin, D-CONGA, D-CONGA-Q7, polymyxin B). See Antimicrobial susceptibility testing section. The bacteria were serially passaged a total of 10 times.
(§3) All resistance acquisition data was analyzed in units of fold-change to normalize for differences in starting MIC across strains. Fold-change in MIC data for all strains and treatment groups was natural log-transformed and simple linear regression was performed considering each replicate fold-change value as an individual point. Slope, standard error of slope, and total number of values of each treatment group of interest were analyzed via unpaired t-test (ΔmutS vs WT) or ordinary one-way ANOVA (cross-resistance acquisition of ΔmutS+AB vs −AB vs WT), and α-values were corrected for multiple comparisons using the Bonferroni method. Differences in estimated mutation rate across treatment groups were determined via ordinary one-way ANOVA (Brown-Forsythe test). For all statistical tests, p<0.05 was considered significant. All figures were created and statistical tests were done using GraphPad Prism 9.3.1.

[2] = tested on: MPAO1; assay: as above; type: cell-based, Pseudomonas aeruginosa
Procedure: as §1, §2, §3

[3] = tested on: drug-resistant clinical isolates of Staphylococcus aureus, Klebsiella pneumoniae, Acinetobacter baumannii, and P. aeruginosa; conditions: in vitro and in vivo, reference 23; cited from earlier work
[4] = tested on: wild type P. aeruginosa (PAO1); conditions: reference 23; cited from earlier work
[5] = tested on: PAO1; assay: microbe, parasite or virus in culture; type: cell-based, Pseudomonas aeruginosa; conditions: strain PAO1
Procedure: (§4) MIC experiments were performed using biological triplicates.

[6] = tested on: MPAO1; assay: microbe, parasite or virus in culture; type: cell-based, Pseudomonas aeruginosa; conditions: strain MPAO1
Procedure: as §4

[7] = tested on: predicted MMR-deficient clinical isolates; assay: In vitro adaptive evolution of clinical isolates from pwCF; type: cell-based, Pseudomonas aeruginosa; conditions: isolates CFP6_Pa2, CFP8_Pa1 and CFP9_Pa1
Procedure: as §4

[8] = tested on: MPAO1-ΔmutL; assay: In vitro adaptive evolution (serial passaging) with MIC determination; type: cell-based, Pseudomonas aeruginosa; conditions: MPAO1-ΔmutL, monotherapy
Procedure: as §1, §2, §3

[9] = tested on: MPAO1-ΔmutL; assay: MIC, microbroth dilution assay; type: cell-based, Pseudomonas aeruginosa; conditions: strain ΔmutL
Procedure: as §4

[10] = tested on: MPAO1-ΔmutS; assay: MIC, microbroth dilution assay; type: cell-based, Pseudomonas aeruginosa; conditions: strain ΔmutS
Procedure: as §4

[11] = MPAO1-ΔmutS evolved in AZ + COL
[12] = MPAO1-ΔmutS evolved in AZ + D-CONGA
[13] = MPAO1-ΔmutS evolved in AZ + D-CONGA-Q7
[14] = MPAO1-ΔmutS evolved in D-CONGA-Q7
[15] = MPAO1-ΔmutS passaged with No Antibiotic (Table 4)
[16] = MPAO1-ΔmutS passaged with No Antibiotic (Table 8)
[17] = MPAO1 evolved in AZ + D-CONGA-Q7
[18] = MPAO1 passaged with No Antibiotic (Table 4)
[19] = MPAO1 passaged with No Antibiotic (Table 8)

Molecule	fold-change relative to starting MIC before treatment ([1]; MPAO1-ΔmutS evolved in AZ)	fold-change relative to starting MIC before treatment [1, 11]	fold-change relative to starting MIC before treatment [1, 12]	fold-change relative to starting MIC before treatment [1, 13]	fold-change relative to starting MIC before treatment ([1]; MPAO1-ΔmutS evolved in COL)	fold-change relative to starting MIC before treatment ([1]; MPAO1-ΔmutS evolved in Chl)	fold-change relative to starting MIC before treatment ([1]; MPAO1-ΔmutS evolved in D-CONGA)	fold-change relative to starting MIC before treatment [1, 14]	cross-resistance to antibiotics induced by treatment [1]	cross-resistance to peptides induced by treatment [1]	fold-change relative to starting MIC before treatment [1, 15]	fold-change relative to starting MIC before treatment [1, 16]	resistance acquisition on repeated exposure to the drug [1]	fold-change relative to starting MIC before treatment ([2]; MPAO1 evolved in AZ)	fold-change relative to starting MIC before treatment ([2]; MPAO1 evolved in AZ + COL)	fold-change relative to starting MIC before treatment ([2]; MPAO1 evolved in AZ + D-CONGA)	fold-change relative to starting MIC before treatment [2, 17]	fold-change relative to starting MIC before treatment ([2]; MPAO1 evolved in COL)	fold-change relative to starting MIC before treatment [2, 18]	fold-change relative to starting MIC before treatment [2, 19]	further results
CC(C)C[C@@H](NC(=O)[C@@H](CCC(N)=O)NC(=O)[C@@H](CCCNC(=N)N)NC(=O)[C@@H](CCCNC(=N)N)NC(=O)[C@@H](C)NC(=O)[C@@H](Cc1c[nH]c2ccccc12)NC(=O)[C@@H](CCCNC(=N)N)NC(=O)[C@H](N)CCCNC(=N)N)C(=O)N[C@H](C)C(=O)N[C@H](Cc1ccccc1)C(=O)N[C@H](C)C(=O)N[C@H](Cc1ccccc1)C(=O)N[C@H](CCCNC(=N)N)C(=O)N[C@H](CCCNC(=N)N)C(N)=O [D-CONGA-Q7] (H-[dR][dR][dW][dA][dR][dR][dQ][dL][dA][dF][dA][dF][dR][dR]-NH2; N-terminus and C-terminus assumed)	0.42	2	0.67	0.67	1.75	1	2.67	3.33	failed to induce marked cross-resistance to antibiotics	induced cross-resistance to other peptides	1	1.38	developed resistance	1.2	1	1.2	1.2	1	1	1	fold-change relative to starting MIC before treatment ([2]; MPAO1 evolved in D-CONGA): 1; fold-change relative to starting MIC before treatment ([2]; MPAO1 evolved in D-CONGA-Q7): 1.33; efficacy against drug-resistant clinical isolates [3]: efficacious in vitro and in vivo; induction of resistance [4]: has not been observed
CC(C)C[C@@H](NC(=O)[C@@H](CCCNC(=N)N)NC(=O)[C@@H](CCCNC(=N)N)NC(=O)[C@@H](C)NC(=O)[C@@H](Cc1c[nH]c2ccccc12)NC(=O)[C@@H](CCCNC(=N)N)NC(=O)[C@H](N)CCCNC(=N)N)C(=O)N[C@H](C)C(=O)N[C@H](Cc1ccccc1)C(=O)N[C@H](C)C(=O)N[C@H](Cc1ccccc1)C(=O)N[C@H](CCCNC(=N)N)C(=O)N[C@H](CCCNC(=N)N)C(N)=O [D-CONGA] (H-[dR][dR][dW][dA][dR][dR][dL][dA][dF][dA][dF][dR][dR]-NH2; N-terminus and C-terminus assumed)	0.33	1.3	0.43	0.67	3	1	2	3.33	failed to induce marked cross-resistance to antibiotics	induced cross-resistance to other peptides	1	1	developed resistance	1.2	1	1.2	1.2	1	2	1	fold-change relative to starting MIC before treatment ([2]; MPAO1 evolved in D-CONGA): 1; fold-change relative to starting MIC before treatment ([2]; MPAO1 evolved in D-CONGA-Q7): 1.4; efficacy against drug-resistant clinical isolates [3]: efficacious in vitro and in vivo; induction of resistance [4]: has not been observed
Colistin	–	1.67	–	–	20	–	–	–	failed to induce marked cross-resistance to antibiotics	induced cross-resistance to other peptides	1	1	Rapid acquisition of resistance	–	2.67	–	–	2	1	1	MIC, average of triplicates [5]: 2 µg/mL; MIC, average of triplicates [6]: 2 µg/mL; resistance acquisition under monotherapy [7]: rapidly acquired resistance; resistance acquisition on repeated exposure to the drug [8]: rapid resistance acquisition; Average MIC at end point [1, 11]: 3 µg/mL; Average MIC at end point ([1]; MPAO1-ΔmutS evolved in COL): 53 µg/mL; Average MIC at end point [1, 15]: 2 µg/mL; Average MIC at end point [1, 16]: 2 µg/mL; resistance acquisition on repeated exposure to the drug ([2]; MPAO1, monotherapy, more slowly than MPAO1-ΔmutS): eventually displayed an elevated minimum inhibitory concentration (MIC); Average MIC at end point ([2]; MPAO1 evolved in AZ + COL): 5 µg/mL; Average MIC at end point ([2]; MPAO1 evolved in COL): 4 µg/mL; Average MIC at end point [2, 18]: 2 µg/mL; Average MIC at end point [2, 19]: 2 µg/mL; MIC, average of triplicates [9]: 2 µg/mL; MIC, average of triplicates [10]: 2 µg/mL
